For data set [1], the system named is axillary buds of tobacco Tsukuba 1 (flue-cured cultivar). The experiment in a line: Axillary bud growth inhibition, pot test in glasshouse, spraying after top pruning (flue-cured cultivar). The note with it: 28 days after spraying. Format: in vivo, Nicotiana tabacum. Here is the method: (§1) Tobacco seedlings of Tsukuba 1 (flue-cured cultivar) and Michinoku 1 (burley cultivar) were transplanted to 1/5000a Wagner pots filled with Kureha garden nursery soil. The plants were grown in a glasshouse, and the floral axis parts were removed at the time of single-flower bloom of tobacco (top pruning).
(§2) The formulations of the inhibitors for tobacco axillary bud growth obtained in Formulation Examples 1 to 4 above were each diluted with water to predetermined concentrations, and 20 ml of the water-diluted solutions of the respective inhibitors were separately sprayed using a contact-type axillary bud inhibitor spraying instrument equipped with a spot exhaust nozzle (Examples 1 to 4 and 5 to 8). In addition, butralin (trade name: Blue Ribbon) (Comparative Examples 1 to 2 and 5 to 6) and decyl alcohol (trade name: Contact) (Comparative Examples 3 to 4 and 7 to 8) were used for tests as comparative examples in the same manner as above. In the cases of both the flue-cured cultivar and burley cultivar, one plant was planted per pot, and the tests were carried out in duplicate.
(§3) For the respective cases, states of inhibition of axillary bud growth 28 days after the spraying were investigated together with untreated groups sprayed with no inhibitor, and axillary bud growth inhibition ratios were calculated by the following equation. Axillary bud growth inhibition ratio=(fresh weight of axillary buds per plant of untreated group−fresh weight of axillary buds per plant of treated group)÷(fresh weight of axillary buds per plant of untreated group)×100 [Math. 1]
(§4) Formulation of Formulation Example 1 or Formulation Example 3 was diluted with water to predetermined concentrations and mixed with decyl alcohol (manufactured by Wako Pure Chemical Industries, Ltd.), 2-ethylhexanol (manufactured by Wako Pure Chemical Industries, Ltd.) or geraniol (manufactured by Wako Pure Chemical Industries, Ltd.) at predetermined concentrations, and the resultant was adjusted and used for tests (Examples 9 to 14 and 15 to 20). In addition, as comparative examples, the formulation of Formulation Example 1 or Formulation Example 3 diluted with water to predetermined concentrations (Comparative Examples 9 to 10 and 14 to 15) and decyl alcohol, 2-ethylhexanol or geraniol diluted with water to a predetermined concentration were used for tests (Comparative Examples 11 to 13 and 16 to 18).
(§5) The respective inhibitors were sprayed in the same manner as in Test Example 1, and states of inhibition of axillary bud growth 28 days after the spraying were investigated together with untreated groups sprayed with no inhibitor. Then, axillary bud growth inhibition ratios were calculated.

Data set [2] has as its system axillary buds of tobacco Michinoku 1 (burley cultivar). The experiment in a line: Axillary bud growth inhibition, pot test in glasshouse, spraying after top pruning (burley cultivar). The following applies: 28 days after spraying. It counts as in vivo, Nicotiana tabacum. Here is the method:
as §1, §2, §3, §4, §5

In data set [3] the test system is leaves (first to fourth from the top) of tobacco Michinoku 1 (burley cultivar). The experiment in a line: Harmful effect of inhibitor on leaves (burley cultivar). Also noted: species or system Nicotiana tabacum. The note with it: in vivo. Here is the method:
as §1, §2
Further, the presence or absence of the harmful effect of each inhibitor was evaluated in one of the following four categories depending on the degrees of growth inhibition, gangrene, change in color, deformation and the like of leaves (first to fourth leaves from the top). […]

Where [4] appears, read: active ingredient 0.03%, 20 ml sprayed.
The mark [5] stands for this setting: active ingredient 2.6%, 20 ml sprayed.
Setting [6] is: active ingredient 0.35%, 20 ml sprayed.

`CCCCC(CC)CO` (centres unmarked) [2-ethylhexanol]: the “Axillary bud growth inhibition ratio (%)” value in data set [1] (active ingredient 0.5%) worked out at 21%; in data set [2] (active ingredient 0.5%) it was 28%.
On to `CSC(=O)c1c(C(F)F)nc(C(F)(F)F)c(C(=O)SC)c1CC(C)C` [Dithiopyr, dithiopyr], for which the “Axillary bud growth inhibition ratio (%)” value in data set [1] (active ingredient 0.005%) is 75%; in data set [2] (active ingredient 0.005%) it was 78%.
As to `CCCCCCCCCCO` [Decyl Alcohol, decyl alcohol], the “Axillary bud growth inhibition ratio (%)” value in data set [1] (setting [4]) is 0%; in data set [1] (active ingredient 0.5%), 30%; in data set [1] (setting [5]), 91%; in data set [2] (setting [4]) it was 0%; in data set [2] (active ingredient 0.5%), 37%; in data set [2] (setting [5]), 94%. Also, the “Harmful effect of inhibitor” value in data set [3] was “Absent”.
For `CC(C)=CCC/C(C)=C/CO` [Geraniol, geraniol], the “Axillary bud growth inhibition ratio (%)” value in data set [1] (active ingredient 0.5%) is given as 26%; in data set [2] (active ingredient 0.5%), 32%.
Regarding `CCC(C)Nc1c([N+](=O)[O-])cc(C(C)(C)C)cc1[N+](=O)[O-]` (centres unmarked) [Butralin, butralin], the “Axillary bud growth inhibition ratio (%)” value in data set [1] (setting [4]) turned out to be 44%; in data set [1] (setting [6]), 98%; in data set [2] (setting [4]), 48%; in data set [2] (setting [6]) it was 97%. Also, the “Harmful effect of inhibitor” value in data set [3] is listed as “Absent”.
Regarding `C#CC(C)(C)NC(=O)c1cc(Cl)cc(Cl)c1` [Propyzamide, propyzamide], the results for the “Axillary bud growth inhibition ratio (%)” value in data set [1] (active ingredient 0.005%) and in data set [2] (active ingredient 0.005%) were 70% and 72%, respectively.

The values are drawn from patent publication US9029293B2, “Tobacco axillary bud inhibitor and tobacco axillary bud-inhibiting method” (priority 2011, dated 2015).
